In article PMC9138102, “The Role of ZIP9 and Androgen Receptor in the Establishment of Tight Junctions between Adult Rat Sertoli Cells” (Biology, 2022):

Key:
[1] = tested on: androgen binding site of ZIP9; assay: T-BSA-FITC plasma membrane labeling of PASC1 cells and its displacement; conditions: PASC1 cells, n = 28
Procedure: PASC1 cells were cultured as described above in 24-well plates at a density of 3 × 10^3 cells/well until reaching a confluence of approximately 80%. The cells were then treated with either 10 nM testosterone or 1 µM of P1 for 1 h. Controls received only the testosterone vehicle (ethanol). […] The medium was then removed by aspiration. In order to label nuclei, cells were fixed at room temperature with 3.7% formaldehyde that contained 20 ng of 4,6-diamino-2-phenylindole (DAPI). After 15 min, the formaldehyde/DAPI solution was removed by aspiration. Cells were washed with Dulbecco’s phosphate-buffered saline (DPBS, Gibco, Schwerte, Germany) and then overlayed with 400 µL PBS before imaging. Images were taken by an inverse Olympus IX81 microscope (Olympus, Hamburg, Germany).

ZIP9 protein = ZIP9 protein silencing in PASC1 cells, immunofluorescence; type: cell-based, rat; conditions: 48 h siRNA
ZIP9-specific mRNA = assay: ZIP9 mRNA silencing in PASC1 cells, qRT-PCR; type: cell-based, rat; conditions: 48 h siRNA
Procedure: (§1) Primers were designed with http://www.ncbi.nlm.nih.gov/tools/primer-blast (Accessed on 28 February 2022) and were all intron-spanning. Total RNA was isolated from PASC1 with the RNeasy Mini-Kit (Qiagen, Hilden, Germany) and subjected to DNase I treatment as described by the manufacturer. The Reverse Transcription-System first strand cDNA synthesis kit (Invitrogen, Darmstadt, Germany) was used for cDNA synthesis, as recommended. Quantitative real-time PCR (qRT-PCR) amplification was performed in duplicate with iQ TM SYBR Green Super-mix (Bio-Rad; Munich; Germany) on the iCycler iQ System (Bio-Rad). After an initial heating at 94 °C for 5 min, 40 amplification cycles were performed consisting of an initial denaturation of the DNA double strands at 94 °C for 14 s, an annealing phase of the primers at 59 °C for 30 s, and extension of the primers for 15 s at 72 °C. A finalizing extension at 72 °C was carried out for 10 min. Gene expression was measured after reaching the ct value and calculated using the Delta–Delta Ct method. Detection of GAPDH-specific mRNA/cDNA served as normalization of the quantification. Oligonucleotides used in the qRT-PCR, their annealing position, and the expected size of the amplificates are listed in Supplementary Table S2. […]

AR protein = AR protein silencing in PASC1 cells, immunofluorescence; type: cell-based, rat; conditions: 48 h siRNA
Procedure: PASC1 cells were plated at a density of 3.0 × 10^4 on 24-well plates (1 mL/well) and incubated 48 h at 37 °C and 5% CO2 until a confluence of roughly 80% was reached. Cells were rinsed with DPBS and fixed with 100% ice-cold methanol (Roth, Karlsruhe, Germany) on ice for 10 min directly or after stimulation with vehicle, 10 nM testosterone, or 1 µM P1 for 24 h. Cells were then washed with DPBS three times for 5 min, and then incubated in blocking solution (PBS with 3% BSA and 0.3% Triton X-100, both from Sigma-Aldrich) for 1 h at room temperature. The blocking solution was replaced by fresh blocking solution containing the primary antibodies for detection of either AR, p-Erk1/2, p-CREB/p-ATF-1, claudin-1 (Cldn-1), or zonula occludens-1 (ZO-1) (Supplementary Table S1) and incubated overnight at 4 °C. […] After washing 3 times with DPBS, images were obtained using an inverse Olympus IX81 microscope equipped with a fluorescence system. A total of 30 cells from 3 independent experiments (30 × 3) localized closest to the diagonals of the square optical field were selected and the manually surrounded green fluorescence was quantified by ImageJ (available at http://rsbweb.nih.gov/ij/, last accessed 28 February 2022) following the protocol of the software provider. The data obtained were analyzed by GraphPad Prism5 (GraphPad Software, Inc., La Jolla, CA, USA). […]

AR-specific mRNA = assay: AR mRNA silencing in PASC1 cells, qRT-PCR; type: cell-based, rat; conditions: 48 h siRNA
Procedure: as §1

[2] = tested on: androgen binding site ZIP9 of L6 myoblasts; conditions: cited from earlier work
[3] = tested on: androgen binding site ZIP9 of the Sertoli cell line 93RS2; design: method as in PMID 35053053, PMID 35053017; conditions: 93RS2 cells; cited from earlier work

Substance: BSA-FITC: BSA-FITC (lacking testosterone)
- Membrane labeling by BSA-FITC (non-specific binding) ([1]; 10 µM BSA-FITC, pH 7.2, 20 min, room temperature): failed to label the membrane structure

Substance: ZIP9-directed siRNA: 5′ GGAUUAAGUAAGAGCAGUAtt3′ and 5′ UACUGCUCUUACUUAAUCCta 3′ (ZIP9-siRNA for ZIP9 silencing) (chain 1 GGAUUAAGUAAGAGCAGUATT; chain 2 UACUGCUCUUACUUAAUCCTA; Commercial Silencer Select siRNA, lowercase 3' overhang letters not explained, further chemistry not given here)
- Expression of ZIP9 protein (ZIP9 protein): similarly successful in preventing expression
- Expression of ZIP9 mRNA (ZIP9-specific mRNA): similarly successful in preventing expression

Substance: AR-siRNA: 5′CCGGAAAUGUUAUGAAGCAtt3′ plus 5′ UGCUUCAUAACAUUUCCGGag 3′ (AR-siRNA for AR silencing) (chain 1 CCGGAAAUGUUAUGAAGCATT; chain 2 UGCUUCAUAACAUUUCCGGAG; Commercial Silencer Select siRNA, lowercase 3' overhang letters not explained, further chemistry not given here)
- Expression of AR protein (AR protein): also prevented
- Expression of AR-specific mRNA (AR-specific mRNA): greatly suppressed

Substance: testosterone 3-(O-carboxymethyl)-oxime:bovine serum albumin-fluorescein isothiocyanate conjugate [T-BSA-FITC]
- Membrane labeling ([1]; 10 µM T-BSA-FITC, pH 7.2, 20 min, room temperature, nc-siRNA treated, fluorescence): label the surface of PASC1 cells
- Membrane labeling after ZIP9 knockdown ([1]; ZIP9 expression suppressed by siRNA, 10 µM T-BSA-FITC): suppression of its expression by siRNA prevented the binding of T-BSA-FITC
- Labeling of androgen binding site of ZIP9 [2]: suitable to label the androgen binding site ZIP9 of the Sertoli cell line 93RS2 and also of L6 myoblasts
- Labeling of androgen binding site of ZIP9 [3]: suitable to label the androgen binding site ZIP9 of the Sertoli cell line 93RS2
